# From the supplement of paper PMC10307832
# Columns and labels:
# Assay in all cases: relative viability (nuclei count vs DMSO), 5 days (fraction); higher = more cells survive
# KN-93 = compound: CN(C/C=C/C1=CC=C(C=C1)Cl)CC2=CC=CC=C2N(CCO)S(=O)(=O)C3=CC=C(C=C3)OC [KN-93]
# Procedure, shortened: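 Five library-drug doses spaced by √10 were pinned onto vehicle-anchored 1536-well plates of lung cancer cell lines that had been kept overnight at 37 °C. Cells went 5 days without medium change, then were fixed, permeabilised and Hoechst-stained together, imaged at 4× and counted by MetaXpress. Viability is the ratio of treated-well to vehicle-well nuclei, taken as a median over plates. Plates required control CV below 25% and at least one doubling.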
# KN-93 + Trametinib = compound: CN(C/C=C/C1=CC=C(C=C1)Cl)CC2=CC=CC=C2N(CCO)S(=O)(=O)C3=CC=C(C=C3)OC [KN-93] + CC(=O)Nc1cccc(-n2c(=O)n(C3CC3)c(=O)c3c(Nc4ccc(I)cc4F)n(C)c(=O)c(C)c32)c1 [Trametinib] (partner 0.02 µM)
# Procedure, shortened: (§1)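 A single step with final 0.05% Triton X-100, 1% formaldehyde and 1 ug/ml Hoechst fixed the cells and stained nuclei 5 days after treatment. Lung cancer cell lines in 1536-well plates had been treated by pin tool the day after seeding with one drug alone or a fixed anchor-drug dose plus five library-drug doses (not always all listed) in √10 steps, and nuclei were counted on 4× images. Relative viability is the ratio of nuclei in treated wells to nuclei in vehicle wells, taken as the median of duplicate plates.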
# KN-93 + Palbociclib = compound: CN(C/C=C/C1=CC=C(C=C1)Cl)CC2=CC=CC=C2N(CCO)S(=O)(=O)C3=CC=C(C=C3)OC [KN-93] + CC(=O)c1c(C)c2cnc(Nc3ccc(N4CCNCC4)cn3)nc2n(C2CCCC2)c1=O [Palbociclib] (partner 0.5 µM)
# Procedure, shortened: as §1
# KN-93 + Luminespib = compound: CN(C/C=C/C1=CC=C(C=C1)Cl)CC2=CC=CC=C2N(CCO)S(=O)(=O)C3=CC=C(C=C3)OC [KN-93] + CCNC(=O)c1noc(-c2cc(C(C)C)c(O)cc2O)c1-c1ccc(CN2CCOCC2)cc1 [Luminespib] (partner 0.01 µM)
# Procedure, shortened: as §1
# KN-93 + Foretinib = compound: CN(C/C=C/C1=CC=C(C=C1)Cl)CC2=CC=CC=C2N(CCO)S(=O)(=O)C3=CC=C(C=C3)OC [KN-93] + COc1cc2c(Oc3ccc(NC(=O)C4(C(=O)Nc5ccc(F)cc5)CC4)cc3F)ccnc2cc1OCCCN1CCOCC1 [Foretinib] (partner 0.25 µM)
# Procedure, shortened: as §1
# KN-93 + OSI-027 = compound: CN(C/C=C/C1=CC=C(C=C1)Cl)CC2=CC=CC=C2N(CCO)S(=O)(=O)C3=CC=C(C=C3)OC [KN-93] + COc1cccc2cc(-c3nc([C@H]4CC[C@H](C(=O)O)CC4)n4ncnc(N)c34)[nH]c12 [OSI-027] (partner 0.5 µM)
# Procedure, shortened: as §1
# KN-93 + Tozasertib = compound: CN(C/C=C/C1=CC=C(C=C1)Cl)CC2=CC=CC=C2N(CCO)S(=O)(=O)C3=CC=C(C=C3)OC [KN-93] + Cc1cc(Nc2cc(N3CCN(C)CC3)nc(Sc3ccc(NC(=O)C4CC4)cc3)n2)n[nH]1 [Tozasertib] (partner 0.1 µM)
# Procedure, shortened: as §1
# KN-93 + Dasatinib = compound: CN(C/C=C/C1=CC=C(C=C1)Cl)CC2=CC=CC=C2N(CCO)S(=O)(=O)C3=CC=C(C=C3)OC [KN-93] + Cc1nc(Nc2ncc(C(=O)Nc3c(C)cccc3Cl)s2)cc(N2CCN(CCO)CC2)n1 [Dasatinib] (partner 0.075 µM)
# Procedure, shortened: as §1
# KN-93 + Phenformin = compound: CN(C/C=C/C1=CC=C(C=C1)Cl)CC2=CC=CC=C2N(CCO)S(=O)(=O)C3=CC=C(C=C3)OC [KN-93] + N=C(N)NC(=N)NCCc1ccccc1 [Phenformin] (partner 250 µM)
# Procedure, shortened: as §1
# KN-93 + AZD7762 = compound: CN(C/C=C/C1=CC=C(C=C1)Cl)CC2=CC=CC=C2N(CCO)S(=O)(=O)C3=CC=C(C=C3)OC [KN-93] + NC(=O)Nc1cc(-c2cccc(F)c2)sc1C(=O)N[C@H]1CCCNC1 [AZD7762] (partner 0.2 µM)
# Procedure, shortened: as §1
# KN-93 + Pemetrexed = compound: CN(C/C=C/C1=CC=C(C=C1)Cl)CC2=CC=CC=C2N(CCO)S(=O)(=O)C3=CC=C(C=C3)OC [KN-93] + Nc1nc2[nH]cc(CCc3ccc(C(=O)N[C@@H](CCC(=O)O)C(=O)O)cc3)c2c(=O)[nH]1 [Pemetrexed] (partner 0.2 µM)
# Procedure, shortened: as §1
# KN-93 + Decitabine = compound: CN(C/C=C/C1=CC=C(C=C1)Cl)CC2=CC=CC=C2N(CCO)S(=O)(=O)C3=CC=C(C=C3)OC [KN-93] + Nc1ncn([C@H]2C[C@H](O)[C@@H](CO)O2)c(=O)n1 [Decitabine] (partner 2 µM)
# Procedure, shortened: as §1
# KN-93 + Vorinostat = compound: CN(C/C=C/C1=CC=C(C=C1)Cl)CC2=CC=CC=C2N(CCO)S(=O)(=O)C3=CC=C(C=C3)OC [KN-93] + O=C(CCCCCCC(=O)Nc1ccccc1)NO [Vorinostat] (partner 1 µM)
# Procedure, shortened: as §1
# KN-93 + Olaparib = compound: CN(C/C=C/C1=CC=C(C=C1)Cl)CC2=CC=CC=C2N(CCO)S(=O)(=O)C3=CC=C(C=C3)OC [KN-93] + O=C(c1cc(Cc2n[nH]c(=O)c3ccccc23)ccc1F)N1CCN(C(=O)C2CC2)CC1 [Olaparib] (partner 8 µM)
# Procedure, shortened: as §1
cell line,measurement,setting,value
NCI-H2342,relative viability,KN-93; 0.08 µM,0.911
same,relative viability,KN-93; 0.253 µM,0.959
same,relative viability,KN-93; 2.53 µM,0.977
same,relative viability,KN-93; 8 µM,0.818
same,relative viability,KN-93 + Trametinib; first compound 0.08 µM,0.744
same,relative viability,KN-93 + Trametinib; first compound 0.253 µM,0.687
same,relative viability,KN-93 + Trametinib; first compound 2.53 µM,0.94
same,relative viability,KN-93 + Trametinib; first compound 8 µM,0.78
same,relative viability,KN-93 + Palbociclib; first compound 0.08 µM,0.538
same,relative viability,KN-93 + Palbociclib; first compound 0.253 µM,0.54
same,relative viability,KN-93 + Palbociclib; first compound 2.53 µM,0.565
same,relative viability,KN-93 + Palbociclib; first compound 8 µM,0.507
same,relative viability,KN-93 + Luminespib; first compound 0.08 µM,0.623
same,relative viability,KN-93 + Luminespib; first compound 0.253 µM,0.686
same,relative viability,KN-93 + Luminespib; first compound 2.53 µM,0.913
same,relative viability,KN-93 + Luminespib; first compound 8 µM,0.634
same,relative viability,KN-93 + Foretinib; first compound 0.08 µM,0.918
same,relative viability,KN-93 + Foretinib; first compound 0.253 µM,0.962
same,relative viability,KN-93 + Foretinib; first compound 2.53 µM,1.06
same,relative viability,KN-93 + Foretinib; first compound 8 µM,0.902
same,relative viability,KN-93 + OSI-027; first compound 0.08 µM,0.587
same,relative viability,KN-93 + OSI-027; first compound 0.253 µM,0.62
same,relative viability,KN-93 + OSI-027; first compound 2.53 µM,0.625
same,relative viability,KN-93 + OSI-027; first compound 8 µM,0.582
same,relative viability,KN-93 + Tozasertib; first compound 0.08 µM,0.471
same,relative viability,KN-93 + Tozasertib; first compound 0.253 µM,0.492
same,relative viability,KN-93 + Tozasertib; first compound 2.53 µM,0.556
same,relative viability,KN-93 + Tozasertib; first compound 8 µM,0.421
same,relative viability,KN-93 + Dasatinib; first compound 0.08 µM,0.277
same,relative viability,KN-93 + Dasatinib; first compound 0.253 µM,0.327
same,relative viability,KN-93 + Dasatinib; first compound 2.53 µM,0.354
same,relative viability,KN-93 + Dasatinib; first compound 8 µM,0.277
same,relative viability,KN-93 + Phenformin; first compound 0.08 µM,0.536
same,relative viability,KN-93 + Phenformin; first compound 0.253 µM,0.62
same,relative viability,KN-93 + Phenformin; first compound 2.53 µM,0.671
same,relative viability,KN-93 + Phenformin; first compound 8 µM,0.487
same,relative viability,KN-93 + AZD7762; first compound 0.08 µM,0.472
same,relative viability,KN-93 + AZD7762; first compound 0.253 µM,0.467
same,relative viability,KN-93 + AZD7762; first compound 2.53 µM,0.539
same,relative viability,KN-93 + AZD7762; first compound 8 µM,0.404
same,relative viability,KN-93 + Pemetrexed; first compound 0.08 µM,0.735
same,relative viability,KN-93 + Pemetrexed; first compound 0.253 µM,0.679
same,relative viability,KN-93 + Pemetrexed; first compound 2.53 µM,0.859
same,relative viability,KN-93 + Pemetrexed; first compound 8 µM,0.717
same,relative viability,KN-93 + Decitabine; first compound 0.08 µM,0.675
same,relative viability,KN-93 + Decitabine; first compound 0.253 µM,0.685
same,relative viability,KN-93 + Decitabine; first compound 2.53 µM,0.757
same,relative viability,KN-93 + Decitabine; first compound 8 µM,0.77
same,relative viability,KN-93 + Vorinostat; first compound 0.08 µM,0.635
same,relative viability,KN-93 + Vorinostat; first compound 0.253 µM,0.8
same,relative viability,KN-93 + Vorinostat; first compound 2.53 µM,0.835
same,relative viability,KN-93 + Vorinostat; first compound 8 µM,0.719
same,relative viability,KN-93 + Olaparib; first compound 0.08 µM,0.4
same,relative viability,KN-93 + Olaparib; first compound 0.253 µM,0.423
same,relative viability,KN-93 + Olaparib; first compound 2.53 µM,0.446
same,relative viability,KN-93 + Olaparib; first compound 8 µM,0.352
